Values quoted from earlier work, collected in patent US11331329B2, “Fucosylated oligosaccharides for prevention of coronavirus infection” (Glycosyn LLC, priority 2020, dated 2022).

Settings: oral

2′-Fucosyllactose [2′-FL]
toxicity (natural component of human milk): non-toxic | high doses that may lead to mild gut discomfort and a reversible osmotic diarrhea (adult): > 10 g per day
